Measured values published in patent publication US20120070852A1, “ASSAY” (IMPERIAL INNOVATIONS LIMITED, priority 2008, published 2012).

Biological target: T1, p300 catalytic domain (Homo sapiens, UniProt Q09472)
T1 construct: 40 ng/ml recombinant purified p300 catalytic domain (Millipore); purchased Millipore
T1 sequence (Q09472 1287-1663 limits assumed): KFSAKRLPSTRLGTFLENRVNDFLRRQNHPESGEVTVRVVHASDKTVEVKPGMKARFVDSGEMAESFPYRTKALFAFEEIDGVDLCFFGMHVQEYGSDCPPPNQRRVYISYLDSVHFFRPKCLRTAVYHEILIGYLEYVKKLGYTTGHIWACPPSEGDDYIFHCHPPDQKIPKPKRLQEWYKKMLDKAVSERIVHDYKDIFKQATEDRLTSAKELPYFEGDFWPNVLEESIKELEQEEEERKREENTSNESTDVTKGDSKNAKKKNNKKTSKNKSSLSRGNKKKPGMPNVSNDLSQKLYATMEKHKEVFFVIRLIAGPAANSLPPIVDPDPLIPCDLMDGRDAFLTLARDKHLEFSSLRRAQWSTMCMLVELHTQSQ
Experiment: QD-FRET p300 HAT assay, inhibitor response
Assay type: biochemical
Conditions: 40 ng/ml p300 catalytic domain, 100 μM acetyl-CoA, 25 μM substrate peptide, 2 hr at 30° C.
Protocol: p300 assay: In a final volume of 14 μl, 25 μM substrate peptide was incubated with 40 ng/ml recombinant purified p300 catalytic domain (Millipore) in the presence or absence of 100 μM acetyl-CoA (Sigma-Alrich) and different concentrations of anacardic acid in 50 mM Tris-HCl buffer (pH 8.0) containing 0.1% (w/v) BSA (reaction buffer) for 2 hr at 30° C. An aliquot of this reaction mixture was transferred to a 10 μl solution of 50 nM quantum dots and 300 nM Alexa Fluor 647-labelled anti-AcK antibody to achieve a peptide to Qdot ratio of 40:1 and the mixture allowed to incubate for 30 min at room temperature. Fluorescence intensity data were collected with […] on a SpectraMax M5 microplate reader (Molecular Devices) using a 400 nm excitation source.
A synthetic peptide substrate for p300 containing an appending hexahistidine motif was exposed to p300 enzyme in the presence of acetyl-CoA to allow enzymatic acetylation of the peptide. […] This acetylation event was detected by means of an anti-acetyl lysine antibody labelled with a fluorescent dye, which binds selectively to the acetylated lysine residues of the quantum dot-bound peptide. […] This is indicated in the fluorescence spectra as a concomitant decrease in emission at 605 nm and enhanced emission at 670 nm from the Qdot and dye molecules respectively—see FIG. 8.

CCCCCCCCCCCCCCCc1cccc(O)c1C(=O)O [anacardic acid]
effect of serial dilutions of inhibitor on dye-specific emission at 670 nm (energy transfer): dose-dependent decrease in dye-specific emission at 670 nm
